Data on nine molecules can be found in PMC8836281, “Characterisation of Endogenous Peptides Present in Virgin Olive Oil” (International Journal of Molecular Sciences, 2022).

Read-outs that look alike come from different tables or passages of the source. Residues, ends and D or L forms follow the SMILES beside them. No end group written: not given here.

In one test the target is T1, rabbit-lung ACE (Oryctolagus cuniculus, UniProt P12822).
T1 construct: rabbit-lung ACE (E.C.3.4.15.1., Sigma-Aldrich); purchased Sigma-Aldrich; host or cells: rabbit lung (tissue-derived enzyme)
T1 sequence (P12822 34-1310): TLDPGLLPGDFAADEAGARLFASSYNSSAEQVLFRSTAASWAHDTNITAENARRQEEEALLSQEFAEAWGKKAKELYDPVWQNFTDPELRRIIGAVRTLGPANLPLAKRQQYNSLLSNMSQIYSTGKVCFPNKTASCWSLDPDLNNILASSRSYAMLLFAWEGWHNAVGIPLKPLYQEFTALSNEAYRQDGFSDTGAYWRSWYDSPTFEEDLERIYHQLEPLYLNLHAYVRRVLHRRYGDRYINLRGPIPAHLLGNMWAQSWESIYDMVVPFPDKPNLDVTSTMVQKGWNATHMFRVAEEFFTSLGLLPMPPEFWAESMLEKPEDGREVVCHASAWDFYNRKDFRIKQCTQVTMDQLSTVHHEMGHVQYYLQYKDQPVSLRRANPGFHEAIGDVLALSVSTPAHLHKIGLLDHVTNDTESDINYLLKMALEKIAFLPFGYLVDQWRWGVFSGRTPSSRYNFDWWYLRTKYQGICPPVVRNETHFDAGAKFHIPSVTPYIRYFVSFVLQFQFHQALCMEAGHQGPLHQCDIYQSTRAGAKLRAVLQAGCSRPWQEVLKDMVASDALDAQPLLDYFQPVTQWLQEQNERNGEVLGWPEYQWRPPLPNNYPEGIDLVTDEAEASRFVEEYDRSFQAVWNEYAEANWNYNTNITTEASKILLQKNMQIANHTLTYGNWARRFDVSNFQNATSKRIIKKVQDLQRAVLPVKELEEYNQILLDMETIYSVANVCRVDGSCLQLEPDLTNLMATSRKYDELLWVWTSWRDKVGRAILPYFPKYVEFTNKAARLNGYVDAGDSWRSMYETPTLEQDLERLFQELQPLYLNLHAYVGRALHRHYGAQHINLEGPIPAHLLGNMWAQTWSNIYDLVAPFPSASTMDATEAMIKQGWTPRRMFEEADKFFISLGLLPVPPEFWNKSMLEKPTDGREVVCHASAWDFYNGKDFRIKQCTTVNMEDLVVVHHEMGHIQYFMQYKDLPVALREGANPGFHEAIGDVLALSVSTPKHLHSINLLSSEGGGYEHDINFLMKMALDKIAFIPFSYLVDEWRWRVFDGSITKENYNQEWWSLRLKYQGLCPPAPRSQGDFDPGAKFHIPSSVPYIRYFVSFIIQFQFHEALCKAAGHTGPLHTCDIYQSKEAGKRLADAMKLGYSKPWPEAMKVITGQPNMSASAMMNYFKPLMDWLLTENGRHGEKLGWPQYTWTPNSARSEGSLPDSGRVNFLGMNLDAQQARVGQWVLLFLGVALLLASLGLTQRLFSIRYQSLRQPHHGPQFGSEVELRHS
Briefly: ACE-inhibitory activity of synthetic peptides (fluorescence assay, substrate Abz-Gly-Phe(NO2)-Pro). Type of test: biochemical. The conditions noted are these: means ± SD of three different experiments, ND = not detected, read-out: ACEi Activity IC50 (µM) ± SD. The procedure: The ACE-inhibitory activity of the synthetic peptides was determined according to the method described in [84], with some modifications. This assay is based on the ability of ACE to hydrolyse the substrate o-aminobenzoylglycyl-p-nitrophenylalanyl-proline (Abz-Gly-Phe-(NO2)-Pro, Bachem Feinchemikalien, Bubendorf, Switzerland), producing the fluorescent product o-aminobenzoylglycine (Abz-Gly). Reagents used include: buffer A: 150 mM Tris-HCl buffer (pH 8.3), with 0.1 µM ZnCl2; buffer B: 150 mM de Tris-HCl buffer (pH 8.4), with 1125 mM NaCl; ACE solution (stock): rabbit-lung ACE (E.C.3.4.15.1., Sigma-Aldrich), dissolved in buffer A containing 50% glycerol to make an enzyme concentration of 1 U/mL. This solution was diluted 1/20 with buffer A to obtain the working solution (50 mU/mL), which was prepared fresh every day to conduct the experiment. The substrate solution (Abz-Gly-Phe(NO2)-Pro) was dissolved in buffer B to a final concentration of 0.45 mM. This solution was also prepared every day before its use and was protected from light and kept at 4 °C. The assay was carried out using a fluorescence technique. Black polystyrene plates of 96 wells (Thermo Scientific, Waltham, Massachussets, USA) were used. The wells contained the following reaction solutions: control = 50 μL of Milli-Q water and 50 μL of ACE solution; blank = 50 μL of Milli-Q water and 50 μL of buffer A; sample = 50 μL of sample and 50 μL of ACE solution; sample blank = 50 μL of sample and 50 μL of buffer A. The enzymatic reaction was initiated by adding 200 μL (final volume in each well 300 μL) of substrate solution, and the plate was immediately mixed and incubated at 37 °C in a VICTORX5 fluorometer (PerkinElmer, USA). The fluorescence generated was measured after 30 min using 355 and 420 nm as excitation and emission wavelengths, respectively. The ACE-inhibitory activity of each sample was determined in triplicate. The ACE-inhibitory activity was calculated using the following formula: ACE inhibitory activity (%)=(FC−FB)−(FS−FBs)/FC−FB × 100 where FC (control) is the fluorescence emitted after the action of ACE on the substrate, without inhibitor (i.e., sample); FB (blank) is the fluorescence emitted by the substrate; FS (sample) is the fluorescence emitted after the action of ACE on the substrate, with inhibitor sample; and FBs (blank sample) are the fluorescences emitted by the substrate and the sample.
The ACE-inhibitory activity is expressed as IC50, which is the concentration of inhibitor required to inhibit the activity of ACE by 50%.

A further test deals with ACE. Particulars: read-out: ACE inhibition IC50, cited from earlier work.
For test [1] the following is noted: cited from earlier work.
Test [2] concerns pre- or hypertensive humans. Also on record: method as in PMID 25608938. The conditions noted are these: supplementation of pre- or hypertensive humans for longer than four weeks; meta-analysis of 30 trials; cited from earlier work.

Take VCGEAFGKA [Peptide no. 14]: on rabbit-lung ACE, the IC50 turned out to be 57.2 ± 4.31 µM.
The same measure, in the same setting: the figure for `CC(C)[C@H](NC(=O)[C@H](CO)NC(=O)[C@H](Cc1ccc(O)cc1)NC(=O)[C@H](CS)NC(=O)[C@@H](N)CS)C(=O)N[C@@H](Cc1ccc(O)cc1)C(=O)O` [Peptide no. 1 de novo, CCYSVY] (H-CCYSVY-OH) is 25.6 ± 0.41 µM.
Take SVY: in the test with ACE (C-terminal di-/tripeptide of de novo peptide no. 1), the IC50 was 8.1 µM.
Regarding CPANGFY [Peptide no. 19, CPANGFY], the IC50 at rabbit-lung ACE turned out to be 3.76 ± 0.39 µM.
On to `N[C@@H](CCC(=O)N[C@@H](CS)C(=O)NCC(=O)O)C(=O)O` [glutathione], for which the “antioxidant activity (TEAC)” value in test [1] is reported as 0.9 TEAC.
With DCHYFL [Peptide no. 2 de novo, DCHYFL], the IC50 at rabbit-lung ACE is 41.5 ± 2.09 µM.
The same measure, in the same setting: the figure for NALLCSNS [compound 18] is 0.98 ± 0.04 µM.
Turning to IPP, the IC50 in the test with ACE (peptides described in dairy) was 5 µM. The “effect on systolic and diastolic blood pressure” value in test [2] is “significant reduction in systolic and diastolic blood pressure”.
Turning to VPP, the IC50 with ACE (peptides described in dairy) is 9 µM. In addition, in test [2], the “effect on systolic and diastolic blood pressure” value was “significant reduction in systolic and diastolic blood pressure”.
